The test concerns the target T1, human NK-2 receptor (Homo sapiens, UniProt P21452).
T1 construct: expressed in transfected cells; host or cells: CHO cells (membrane preparation)
T1 sequence (P21452 1-398): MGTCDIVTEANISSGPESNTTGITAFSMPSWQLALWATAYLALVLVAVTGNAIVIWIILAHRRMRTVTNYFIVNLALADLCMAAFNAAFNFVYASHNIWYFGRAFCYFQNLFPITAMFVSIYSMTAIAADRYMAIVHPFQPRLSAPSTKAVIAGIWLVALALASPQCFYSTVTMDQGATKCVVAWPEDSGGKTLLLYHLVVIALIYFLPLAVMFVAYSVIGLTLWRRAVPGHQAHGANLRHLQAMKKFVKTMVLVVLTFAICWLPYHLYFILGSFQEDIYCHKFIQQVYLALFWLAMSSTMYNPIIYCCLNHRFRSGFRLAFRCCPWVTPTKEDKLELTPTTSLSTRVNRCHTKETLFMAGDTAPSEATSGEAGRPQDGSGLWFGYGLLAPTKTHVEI
Nature of the test: Binding power of the test substances to NK-2 receptors in vitro ([3H]-SR 48968 displacement, CHO cell membranes). Particulars: displacement of [3H]-SR 48968, 90 min incubation, average of at least three measurements, 10^-6 to 10^-10 mol/l, read-out: pKi, affinity to human NK-2 receptors (converted). Here is the method:
1. Determination of the Binding Power of the Test Substances to NK-2 Receptors in vitro
The affinity of the test substances to human NK-2 receptors was measured in vitro. The ability of the test substances to displace the selective NK-2 receptor antagonist SR 48968 (=saredutant) used as reference ligand from its corresponding bond was determined.
The receptor binding studies were carried out with radioactively marked [^3H]-SR 48968 (from Amersham) as ligand. For the binding test, different samples of a membrane preparation of CHO cells (=[…]), which express the human NK-2 receptor (for preparation, see N. P. Gerard et al., Journal of Biological Chemistry 265/33 (1990) 20455-20462), were incubated for 90 minutes (=min.) with a solution of the marked ligand, with the incubation mixtures containing no test substance or additions of different concentrations of test substance. Then in each case the membrane-bound ligands in the samples were separated from free ligands by filtration. The fraction remaining in the filter was washed several times with buffer solution, before its radioactivity was measured using a liquid scintillation counter. That concentration which effects half-maximum displacement of the bound reference ligand was determined as IC50 of the respective test substance. The inhibition constant (Ki value) of the test substance was calculated from the respective IC50 value, and was stated as the negative logarithmised value thereof (pKi).
For the compounds of Examples 1 to 39, the affinity to human NK-2 receptors was determined in each case by at least three measurements of the test substances in concentration series of 10^−6 to 10^−10 mol/l. If several measurements were performed, the average thereof was listed each time.
A general note: In a radioligand displacement assay an active substance lowers the binding of a labelled ligand.

This note sets out measurements from patent US6770649B2, “1-[1-(hetero)aryl-1-perhydroxyalkylmethyl]-piperazine compounds, process for their preparation and pharmaceutical compositions containing them” (Solvay Pharmaceuticals GmbH, priority 2001, dated 2004).

As for `CN(C[C@@H](CCN1CCN(C(c2ccsc2)[C@H](O)[C@@H](O)[C@H](O)CO)CC1)c1ccc(Cl)c(Cl)c1)C(=O)c1ccccc1` (stereo partly drawn) [Example 1, N-((2S)-2-(3,4-dichlorophenyl)-4-{4-[(2S,3R,4R)-2,3,4,5-tetrahydroxy-1-(3-thienyl)pentyl]-1-piperazinyl}butyl)-N-methylbenzamide], the Ki is no more than 1 nM. In the case of `CC(=O)OC[C@@H](OC(C)=O)[C@H](OC(C)=O)[C@@H](OC(C)=O)C(c1ccsc1)N1CCN(CC[C@H](CN(C)C(=O)c2ccccc2)c2ccc(Cl)c(Cl)c2)CC1` (stereo partly drawn) [Example 14] it was no more than 10 nM; in that of `CN(CC(CCN1CCN(C(c2ccco2)[C@H](O)[C@@H](O)[C@H](O)CO)CC1)c1ccc(Cl)c(Cl)c1)C(=O)c1ccccc1` (mixture of isomers) [Example 13], no more than 10 nM.
